Measurements taken from patent US20070269379A1, “Penetration Enhancer Combinations for Transdermal Delivery” (priority 2003, published 2007).

Columns and labels:
hairless rat skin = assay: Skin observation and histology after patch application in hairless rats; assay type: in vivo; conditions: skin excised after removing the patch, hematoxylin staining
[1] = tested on: EpiDerm, a cell culture of normal human derived epidermal keratinocytes; assay: MTT uptake assay of irritation potential on EpiDerm cultures; assay type: cell-based; conditions: 4 hrs exposure, vehicle 1:1 PBS:EtOH
Experimental: Experiments to assess irritation potential were performed on the binary pairs of library CPEs at the compositions that yielded the maximum ER value in the screening experiments using the methyl thiazol tetrazolium (MTT) uptake assay. Irritation potential was estimated using EpiDermTM (MatTek Co., MA, USA, […].com), a cell culture of normal human derived epidermal keratinocytes. EpiDermTM cultures were stored and handled according to the standard protocol MTT-ET-50 (MatTek Co., MA, USA, […].com). To study the effect of the test formulations on cell viability, cell cultures were exposed to 10 μl of each test formulation for 4 hrs. Each test formulation was analyzed in duplicate. At the end of 4 hrs the assay medium was removed and stored aside at -70° C. for Interleukin-1α assay. The cell cultures were rinsed clear of the test formulations using PBS and incubated with 300 μL of MTT reagent (MatTek Co., MA, USA) for 3 hrs at 37° C. and 5% CO2. At the end of the incubation period the cell cultures were treated with 2 ml of extracting media (provided by MatTek Co) for 2 hrs. 200 μL of this extraction media was then sampled and its optical density (or absorbence) was measured at 570 nm wavelength. The optical absorbance data was then used to calculate the percentage cell viability as recommended in the MTT-ET-50 protocol.

SMILES	histology: state of the stratum corneum (hairless rat skin)	irritation potential (IP) [1] [%]
CCCCCCCCCCCCOS(=O)(=O)[O-].[Na+] [SLS, Sodium Lauryl Sulfate]	completely detached	
CCCCCCCC/C=C\CCCCCCCC(=O)O [oleic acid]		14.5
